These are literature values, as cited in US12629369B2, “Pharmaceutical compositions of nilotinib” (AZURITY PHARMACEUTICALS, INC., priority 2019, dated 2026).

Counter-ions that a name gives are not always drawn.

The conditions of data set [1]: taken with or after meals, particularly high fat meals (Castagnetti et al 2008).

With `Cc1cn(-c2cc(NC(=O)c3ccc(C)c(Nc4nccc(-c5cccnc5)n4)c3)cc(C(F)(F)F)c2)cn1` [Nilotinib, 4-methyl-N-[3-(4-methyl-1H-imidazol-1-yl)-5-(trifluoromethyl)phenyl]-3-[[4-(3-pyridinyl)-2-pyrimidinyl]amino]-benzamide], in data set [1], the “increase of extent of absorption (area under the plasma profile curve)” value is reported as 82% and the “increase of rate of absorption (Cmax)” value is recorded as 112%. In addition, the “solubility in aqueous solutions” value (25° C., pH 4.5 and higher) is recorded as “practically insoluble”.

Consider `Cc1cn(-c2cc(NC(=O)c3ccc(C)c(Nc4nccc(-c5cccnc5)n4)c3)cc(C(F)(F)F)c2)cn1` [Nilotinib hydrochloride], for which the water solubility result is “poorly water soluble”.
